Measured values as given in patent US20070292888A1, “Methods for Measuring Enzyme Activities in Cells, Blood, Tumors and Tissues” (GEN-PATH PHARMACEUTICALS, INC., priority 2004, published 2007).

Columns and labels:
[1] = target: T1, glucose-6-phosphate dehydrogenase (G6PDH) (Mus musculus, UniProt Q00612); assay: Glucose-6-phosphate dehydrogenase activity in tissues of treated mice (fluorescence NADPH assay); type: in vivo; details: 11 days i.p. twice per day, various organs
T1 construct: from tissue; host or cells: mouse tumor, blood, brain, heart, kidney, liver, lung, spleen (crude lysates)
Procedure: Blood samples from mice were taken (40 μl whole blood) serially or from mice sacrificed at the end of the experiment. Tissues, such as tumors (e.g. from implantation, xenograft, or arising spontaneously), brain, heart, kidney, liver, lung and spleen were taken and flash frozen in liquid nitrogen or on dry ice and stored in −80° C. until time of assay. Four volumes of cold lysis buffer (20 mM HEPES, pH 7.5, 1 mM EDTA, 0.2 g/l Triton X-100® and 0.2 g/L sodium deoxycholate, supplemented with 1 mM DTT and 1 mM PMSF just before use) were added to the blood, which was dissolved by vortexing. For blood that was frozen before coagulation, a clear lysate was obtained. […]
Each reaction was monitored for the appearance of NADH (for transketolase, alpha-ketoglutarate dehydrogenase, pyruvate dehydrogenase) or NADPH (for glucose-6-phosphate dehydrogenase) at room temperature in a fluorescent plate reader with excitation at 340 nm and emission at 470 nm in kinetic mode. The velocity was determined by the slope of the initial linear range of increasing fluorescence, expressed in fluorescent units (FU)/min. The protein concentration in the lysate was determined using Bradford assays (BioRad) with BSA as a standard. […]
We measured enzyme activity in an expanded panel of tissues from mice treated with N3PT or OxyT for 11 days i.p., twice per day. […]

TK = target: T2, TK (Homo sapiens, UniProt P29401); assay: Thiamine competition and washout time course of TK inhibition in cells; type: cell-based; set-up: endogenous in cells; host or cells: HCT116; details: HCT116 cells, TDM, thiamine 0-12 μM, 48 hours; 12 μM thiamine overcomes inhibition
T2 sequence (P29401 1-623): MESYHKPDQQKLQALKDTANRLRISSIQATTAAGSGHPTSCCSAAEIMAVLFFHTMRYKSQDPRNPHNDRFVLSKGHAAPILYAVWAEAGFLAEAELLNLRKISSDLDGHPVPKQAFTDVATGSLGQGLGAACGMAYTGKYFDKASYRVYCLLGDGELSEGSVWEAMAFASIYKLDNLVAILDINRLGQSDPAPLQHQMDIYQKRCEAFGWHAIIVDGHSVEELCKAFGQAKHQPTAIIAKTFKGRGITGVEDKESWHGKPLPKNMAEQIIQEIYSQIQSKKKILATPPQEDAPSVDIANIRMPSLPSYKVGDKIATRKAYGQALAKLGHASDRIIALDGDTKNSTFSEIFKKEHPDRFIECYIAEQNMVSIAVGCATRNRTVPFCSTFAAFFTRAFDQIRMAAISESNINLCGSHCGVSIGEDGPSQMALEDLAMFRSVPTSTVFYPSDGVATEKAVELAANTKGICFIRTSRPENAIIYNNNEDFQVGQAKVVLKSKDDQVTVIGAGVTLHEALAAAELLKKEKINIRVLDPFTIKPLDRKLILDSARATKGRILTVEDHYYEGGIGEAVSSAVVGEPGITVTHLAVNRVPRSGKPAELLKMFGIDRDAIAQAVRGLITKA
Procedure: HCT116 cells were plated in clear-bottomed 96-well culture plates, at a density of 8000 cells/well in TDM. The following morning, N3PT and different amounts of thiamine (12 μM, 2.4 μM, 0.48 μM, 0.096 μM, 0.0192 μM, 0 μM) were added to the cells. Forty-eight hours later, plates were inverted to remove media and blotted on paper towels to remove residual media. Plates were immediately assayed for enzymatic TK activity. 80 μl of lysis buffer was added to each well, and the cells incubated at RT for 10 min to allow cell lysis. After lysis, 20 μl of the aforementioned 5× reaction mix was added to each well to initiate the reaction. Reactions were monitored as described above.
Cells were plated in TDM media 24 hours earlier, different concentration of N3PT and 100 nM thiamine were added to the cells and treated for 48 hour to allow N3PT to exert its inhibitory effect (day 2; d2). The media was then changed to contain only 100 nM thiamine and one plate was assayed every day for the next five days (d3 to d7).

T1 sequence (Q00612 whole entry): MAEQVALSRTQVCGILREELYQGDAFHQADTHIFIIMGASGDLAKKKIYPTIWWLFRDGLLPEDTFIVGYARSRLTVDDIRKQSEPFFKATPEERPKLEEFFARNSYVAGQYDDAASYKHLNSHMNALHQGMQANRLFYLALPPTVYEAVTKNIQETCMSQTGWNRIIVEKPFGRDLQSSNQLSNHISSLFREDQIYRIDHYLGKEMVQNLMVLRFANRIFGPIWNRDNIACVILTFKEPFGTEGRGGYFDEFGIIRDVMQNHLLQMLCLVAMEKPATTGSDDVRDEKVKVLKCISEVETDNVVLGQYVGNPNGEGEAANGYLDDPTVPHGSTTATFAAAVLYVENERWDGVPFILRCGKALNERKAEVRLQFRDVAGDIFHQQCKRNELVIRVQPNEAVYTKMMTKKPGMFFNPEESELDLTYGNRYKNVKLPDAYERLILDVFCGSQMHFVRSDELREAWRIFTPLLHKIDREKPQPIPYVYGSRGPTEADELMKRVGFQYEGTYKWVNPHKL

Cc1ccc(C[n+]2csc(CCO)c2C)c(N)n1 [N3PT, 3-[(2-amino-6-methyl-3-pyridinyl)methyl]-5-(2-hydroxyethyl)-4-methyl thiazolium]
G6PDH enzymatic activity following treatment [1]: no significant decrease
Inhibition of TK in the presence of increased concentrations of thiamine (TK): reduced by thiamine in a concentration dependent manner
